Measured values reported in PubChem BioAssay (NCI).
Where “and” joins values, the source holds several entries; their conditions need not be identical. Equal values may be shown once.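 Step 1: Grow cells in 96-well plates. Step 2: Expose to compound for 48 hours at 5 concentrations. Step 3: Interpolate endpoints linearly; if unreached, use highest concentration. GI50: concentration for 50% inhibition of growth. TGI denotes the concentration required for complete inhibition of growth.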

How the values were obtained:
Test in all cases: inhibition of tumour cell growth, NCI panel, 48 h
PC-3 prostate = test system: PC-3 prostate
MDA-MB-435 = test system: MDA-MB-435
HOP-62 NSCLC = test system: HOP-62 NSCLC
786-0 renal = test system: 786-0 renal
OVCAR-8 ovarian = test system: OVCAR-8 ovarian
SNB-75 CNS = test system: SNB-75 CNS
OVCAR-5 ovarian = test system: OVCAR-5 ovarian
M14 melanoma = test system: M14 melanoma
NCI-H522 lung = test system: NCI-H522 lung
NCI/ADR-RES ovarian = test system: NCI/ADR-RES ovarian

Compound	GI50 (PC-3 prostate)	TGI (PC-3 prostate)	GI50 (MDA-MB-435)	TGI (MDA-MB-435)	GI50 (HOP-62 NSCLC)	TGI (HOP-62 NSCLC)	GI50 (786-0 renal)	TGI (786-0 renal)	GI50 (OVCAR-8 ovarian)	TGI (OVCAR-8 ovarian)	GI50 (SNB-75 CNS)	TGI (SNB-75 CNS)	GI50 (OVCAR-5 ovarian)	TGI (OVCAR-5 ovarian)	GI50 (M14 melanoma)	TGI (M14 melanoma)	GI50 (NCI-H522 lung)	TGI (NCI-H522 lung)	GI50 (NCI/ADR-RES ovarian)	TGI (NCI/ADR-RES ovarian)
O=[N+]([O-])c1cc(C(F)(F)F)ccc1Sc1ccc(C(F)(F)F)cc1[N+](=O)[O-]	61.2 µM	> 100 µM	3.04 µM	> 100 µM	> 100 µM	> 100 µM	> 100 µM	> 100 µM	6.1 µM	> 100 µM	> 100 µM	> 100 µM	43 µM	> 100 µM	7.23 µM	> 100 µM	7.14 µM	82.4 µM	8.19 µM	> 100 µM
COc1ccc2c(c1)C(=O)/C(=C/c1ccc([N+](=O)[O-])o1)O2	1.91 µM	8.27 µM	1.39 µM	3.02 µM	1.82 µM	4.09 µM	1.79 µM	3.43 µM	1.21 µM	5.4 µM	1.73 µM	5.69 µM	1.8 µM	3.64 µM	1.64 µM	3.32 µM	0.527 µM	1.05 µM	3.11 µM	> 38.9 µM
CCOC(=O)C1=C(C)N(Cc2ccc(Cl)cc2Cl)C2(O)C=CC(=O)C3=C(O)c4ccccc4C(=O)C312 (centres undefined)	2.16 µM	10.5 µM	3.87 µM	13.4 µM	3.56 µM	15 µM	3.54 µM	15.2 µM	7.17 µM	91.2 µM	16.9 µM	> 100 µM	9.59 µM	30.1 µM	3.97 µM	69.3 µM	11.4 µM	> 100 µM	0.888 µM	10.3 µM
NS(=O)(=O)c1ccc(N(/C=C/C(=O)C(F)(F)F)Cc2ccc(Cl)cc2)cc1	19.6 µM	59 µM	30.6 µM	96.5 µM	20 µM	53.8 µM	13.2 µM	27 µM	24.3 µM	63.1 µM	32.2 µM	65.1 µM	28.7 µM	> 100 µM	21 µM	43.4 µM	12.6 µM	38.4 µM	15.3 µM	54.9 µM
CCCCCCCCCCCCCCCCCCOCC(CCP(=O)(CP(=O)(O)O)Oc1ccccc1)OCCCCCCCCCCCCCCCCCC (centres undefined)		> 100 µM		> 100 µM		> 100 µM		> 100 µM		> 100 µM		> 100 µM		> 100 µM		> 100 µM		> 100 µM		> 100 µM
CSC(=S)OC1CC(n2cnc3c(NC(=O)c4ccccc4)ncnc32)OC1CO[Si](C)(C)C(C)(C)C (centres undefined)		> 46.4 µM		27.9 µM		46 µM		> 56.2 µM		> 56.2 µM		52 µM		> 56.2 µM		> 56.2 µM		> 56.2 µM		> 56.2 µM
CC(=O)O[C@H]1[C@@H]2OC(=O)C(CSc3ccccc3)[C@@H]2C[C@H]2O[C@]2(C)CC/C=C(\C)CCC[C@@H]1C (some centres undefined)	2.53 µM	11.1 µM	2.12 µM	5.9 µM	9.29 µM	32.5 µM	2.81 µM	8.29 µM	3.77 µM	29.5 µM	2.98 µM	11.6 µM	12.4 µM	33.7 µM	2.13 µM	5.37 µM	1.74 µM	3.68 µM	2.99 µM	32 µM
CCCCCCCCCNC(=O)/C=C/c1ccc(O)c(O)c1	3.61 µM	36.2 µM	7.58 µM	23.5 µM	12.2 µM	25.1 µM	14.3 µM	29.7 µM	24 µM	59.3 µM	15.4 µM	85.2 µM	21.5 µM	45.8 µM	12.2 µM	26.7 µM	0.833 µM	9.91 µM	15.4 µM	46.8 µM
O=C(Nc1cccc(Cl)c1)c1cccc(NC2=C(Cl)C(=O)N(Cc3ccccc3)C2=O)c1	21.9 µM	93.1 µM	25.9 µM	91.3 µM	0.84 µM	42.8 µM	35.8 µM	> 100 µM	56.4 µM	> 100 µM	> 100 µM	> 100 µM	> 100 µM	> 100 µM	18.3 µM	67.3 µM	18.8 µM	53 µM	89.8 µM	> 100 µM
[N-]=[N+]=NCCCn1c2c(c3ccc([N+](=O)[O-])cc3c1=O)C(=O)c1cc(F)ccc1-2	1.25 µM	43.2 µM	4.15 µM	> 86.4 µM	0.32 µM	7.04 µM	0.334 µM	2.01 µM	2.67 µM	> 100 µM	2.13 µM	29 µM	14.4 µM	> 100 µM	1.13 µM	11.1 µM	0.853 µM	12.2 µM	1.46 µM	> 49 µM
Cc1ccc(NS(=O)(=O)c2cccc(C#N)c2)c2[nH]cc(C#N)c12	12 µM and 19 µM	98.4 µM and > 100 µM	12.3 µM and 8.31 µM	55.1 µM and 67.4 µM	20.1 µM and 29.8 µM	96.4 µM and > 100 µM	12 µM and 7.67 µM	55.7 µM and > 100 µM	19.1 µM and 15.8 µM	> 100 µM and 69.3 µM	6.51 µM and 7.05 µM	52.3 µM and 29.4 µM	16.7 µM and 30.6 µM	> 92.7 µM	20 µM and 16.3 µM	> 100 µM		59.9 µM and 23.2 µM	14.2 µM and 2.49 µM	> 92.5 µM
C/C(=C\c1cc(C(F)(F)F)n(-c2ccc(N)cc2)n1)[C@@H]1C[C@@H]2O[C@]2(C)CCC[C@H](C)[C@H](O)[C@@H](C)C(=O)C(C)(C)[C@@H](O)CC(=O)O1	0.0297 µM	> 11.1 µM	0.00227 µM	0.00567 µM	0.0762 µM	> 11.1 µM	0.0614 µM	> 11.1 µM	0.0557 µM	> 11.1 µM	0.0078 µM	0.189 µM	0.0488 µM	> 11.1 µM	0.0166 µM	0.096 µM	0.0233 µM	0.0839 µM	0.164 µM	> 8.45 µM
CCOC(=O)C#Cc1c(C(=O)OCC)nnn1Cc1ccc([N+](=O)[O-])cc1	10.2 µM	22.4 µM	3.35 µM	12.4 µM	17.3 µM	31.6 µM	3.29 µM	10.8 µM	3.72 µM	11.1 µM	6.29 µM	20.5 µM	8.34 µM	22.7 µM	2.97 µM	9.13 µM	1.92 µM	3.8 µM	5.5 µM	21.1 µM
